The text below walks through data of patent US4639459A, “Use of trifluoromethyl compounds” (priority 1985, dated 1987).

For data set [1] the following is noted: human, in vivo; cited from earlier work.
Data set [2] can be described thus: Pharmacokinetic studies comparing relative distribution in brain and plasma. The settings on record: rodents.

For `Cc1ccc(/C(=C\CN2CCCC2)c2ccccn2)cc1` [Triprolidine, (E)-1-(4-methylphenyl)-1-(2-pyridyl)-3-pyrrolidinoprop-1-ene], the sedation and drowsiness result in data set [1] was “produces sedation and drowsiness in varying degrees in most patients”. Turning to `O=C(O)/C=C/c1cccc(/C(=C/CN2CCCC2)c2ccc(C(F)(F)F)cc2)n1` [Compound of Formula (I), (E)-3-{6-[3-Pyrrolidino-1(4-Trifluoromethylphenyl)prop-1E-enyl]-2-pyridyl}acrylic acid], the “penetration of the brain” value in data set [2] is on record as “does not readily penetrate the brains of rodents”.
